In ChEMBL document CHEMBL5380777, “Efficacy, Mechanism, and Structure-Activity Relationship of 6-Methoxy Benzofuran Derivatives as a Useful Tool for Senile Osteoporosis” (J Med Chem, 2023):
Active and inactive are the calls of the source. The calls are words filed in the database; no cut-off is given here.

Key:
Mus musculus [1] = assay: Anti osteoporosis in 16 months old C57 mouse assessed as increase in bone mass administered at 30 mg/kg/day, IG continuously for 2 months by micro CT analysis relative to aged control group; type: functional, organism-based
Mus musculus [2] = assay: Anti osteoporosis in 16 months old C57 mouse assessed as reconstruction of bone microstructure administered at 30 mg/kg/day, IG continuously for 4 months by micro CT analysis relative to young control group; type: functional, organism-based
Mus musculus [3] = assay: Anti osteoporosis in 16 months old C57 mouse assessed as T cell level in femur administered at 30 mg/kg/day, IG continuously for 4 months by scRNA-seq analysis (reference value: 10.54%); type: functional; conditions: 2920 h
[4] = Toxicity in 16 months old C57 mouse assessed as change in cholesterol level administered at 30 mg/kg/day, IG for 4 months for every 6 days; type: organism-based; conditions: in vivo, po, 2920 h
Osteoblast [5] = assay: Upregulation of transcription factor H1F0 expression in 16 months old C57 mouse osteoblast by scRNA-seq analysis; type: functional, cell-based
[6] = Toxicity in 2.5 months old SAMP-6 rapid aging mouse model assessed as change in urea level administered at 30 mg/kg/day, IG continuously for 3 months; type: organism-based; conditions: in vivo, po, 2190 h
[7] = Toxicity in 2.5 months old SAMP-6 rapid aging mouse model assessed as change in body weight administered at 30 mg/kg/day, IG in presence of ALN continuously for 3 months; type: organism-based; conditions: in vivo, po, 2190 h
Mus musculus [8] = assay: Anti osteoporosis in 16 months old C57 mouse assessed as monocyte level in femur administered at 30 mg/kg/day, IG continuously for 4 months by scRNA-seq analysis (reference value: 12.2%); type: functional; conditions: 2920 h
Mus musculus [9] = assay: Anti osteoporosis in 16 months old C57 mouse assessed as increase in bone mass administered at 30 mg/kg/day, IG continuously for 2 months by micro CT analysis relative to young control group; type: functional, organism-based
Mus musculus [10] = assay: Anti osteoporosis in 16 months old C57 mouse assessed as increase in bone mass administered at 30 mg/kg/day, IG continuously for 4 months by micro CT analysis relative to young control group; type: functional, organism-based
Osteoblast [11] = assay: Upregulation of transcription factor MKRN1 expression in 16 months old C57 mouse osteoblast by scRNA-seq analysis; type: functional, cell-based
Osteoblast [12] = assay: Regulation of osteogenesis in 16 months old C57 mouse osteoblast endoplasmic reticulum assessed as increase in Atf4 gene by scRNA-seq analysis; type: functional, cell-based
Mus musculus [13] = assay: Anti osteoporosis in 16 months old C57 mouse assessed as proliferating granulocyte level in femur administered at 30 mg/kg/day, IG continuously for 4 months by scRNA-seq analysis (reference value: 6.29%); type: functional; conditions: 2920 h
Mus musculus [14] = assay: Anti osteoporosis in 16 months old C57 mouse assessed as fold increase in chondrocytes level in femur administered at 30 mg/kg/day, IG continuously for 4 months by scRNA-seq analysis relative to control; type: functional; conditions: 2920 h
Osteoblast [15] = assay: Regulation of osteogenesis in 16 months old C57 mouse osteoblast endoplasmic reticulum assessed as increase in Hspa8 gene by scRNA-seq analysis; type: functional, cell-based
Mus musculus [16] = assay: Anti osteoporosis in 16 months old C57 mouse assessed as reconstruction of bone microstructure administered at 30 mg/kg/day, IG continuously for 4 months by micro CT analysis relative to aged control group; type: functional, organism-based
Osteoblast [17] = assay: Upregulation of transcription factor JUND expression in 16 months old C57 mouse osteoblast by scRNA-seq analysis; type: functional, cell-based
Mus musculus [18] = assay: Anti osteoporosis in 2.5 months old SAMP-6 rapid aging mouse model assessed as increase in osteoblast formation administered at 30 mg/kg/day, IG continuously for 3 months; type: functional, organism-based
Osteoblast [19] = assay: Upregulation of transcription factor HMGA1 expression in 16 months old C57 mouse osteoblast by scRNA-seq analysis; type: functional, cell-based
Mus musculus [20] = assay: Anti osteoporosis in 2.5 months old SAMP-6 rapid aging mouse model assessed as upregulation of serum BMP2 administered at 30 mg/kg/day, IG continuously for 3 months […]; type: functional, organism-based
[21] = Toxicity in 2.5 months old SAMP-6 rapid aging mouse model assessed as morphological change in kidney administered at 30 mg/kg/day, IG continuously for 3 months in presence of ALN by hematoxylin and eosin staining analysis; type: organism-based; conditions: in vivo, po, 2190 h
Osteocyte = assay: Upregulation of BMP-2 expression in 16 months old C57 mouse osteocytes by scRNA-seq analysis; type: functional, cell-based
Mus musculus [22] = assay: Anti osteoporosis in 16 months old C57 mouse assessed as GrP level in femur administered at 30 mg/kg/day, IG continuously for 4 months by scRNA-seq analysis (reference value: 12.75%); type: functional; conditions: 2920 h
[23] = Toxicity in 2.5 months old SAMP-6 rapid aging mouse model assessed as change in triglyceride level administered at 30 mg/kg/day, IG continuously for 3 months in presence of ALN; type: organism-based; conditions: in vivo, po, 2190 h
[24] = Toxicity in 16 months old C57 mouse assessed as change in creatinine level administered at 30 mg/kg/day, IG continuously for 4 months; type: organism-based; conditions: in vivo, po, 2920 h
Mus musculus [25] = assay: Anti osteoporosis in 16 months old C57 mouse assessed as erythroblast level in femur administered at 30 mg/kg/day, IG continuously for 4 months by scRNA-seq analysis (reference value: 1.91%); type: functional; conditions: 2920 h
Osteoblast [26] = assay: Upregulation of transcription factor CSDE1 expression in 16 months old C57 mouse osteoblast by scRNA-seq analysis; type: functional, cell-based
Mus musculus [27] = assay: Anti osteoporosis in 2.5 months old SAMP-6 rapid aging mouse model assessed as increase in bone mass administered at 30 mg/kg/day, IG continuously for 3 months by micro CT analysis; type: functional, organism-based
[28] = Toxicity in 16 months old C57 mouse assessed as change in serum AST level administered at 30 mg/kg/day, IG continuously for 4 months; type: organism-based; conditions: in vivo, po, 2920 h
[29] = Toxicity in 2.5 months old SAMP-6 rapid aging mouse model assessed as morphological change in liver administered at 30 mg/kg/day, IG continuously for 3 months in presence of ALN by hematoxylin and eosin staining analysis; type: organism-based; conditions: in vivo, po, 2190 h
Mus musculus [30] = assay: Anti osteoporosis in 2.5 months old SAMP-6 rapid aging mouse model assessed as increase in number of osteoblast per square millimeter of the trabecular bone surface administered at 30 mg/kg/day, IG continuously for 3 months […]; type: functional, organism-based
[31] = Toxicity in 16 months old C57 mouse assessed as change in urea level administered at 30 mg/kg/day, IG continuously for 4 months; type: organism-based; conditions: in vivo, po, 2920 h
[32] = Toxicity in 16 months old C57 mouse assessed as change in serum ALT level administered at 30 mg/kg/day, IG continuously for 4 months; type: organism-based; conditions: in vivo, po, 2920 h
Mus musculus [33] = assay: Anti osteoporosis in 16 months old C57 mouse assessed as granulocyte level in femur administered at 30 mg/kg/day, IG continuously for 4 months by scRNA-seq analysis (reference value: 28.33%); type: functional; conditions: 2920 h
Mus musculus [34] = assay: Anti osteoporosis in 16 months old C57 mouse assessed as osteoclast level in femur administered at 30 mg/kg/day, IG continuously for 4 months by scRNA-seq analysis (reference value: 6.52%); type: functional; conditions: 2920 h
[35] = Toxicity in 2.5 months old SAMP-6 rapid aging mouse model assessed as change in serum AST level administered at 30 mg/kg/day, IG continuously for 3 months; type: organism-based; conditions: in vivo, po, 2190 h
Osteoblast [36] = assay: Regulation of osteogenesis in 16 months old C57 mouse osteoblast endoplasmic reticulum assessed as increase in Hsph1 gene by scRNA-seq analysis; type: functional, cell-based

Question: Which results are given for `COc1ccc2cc(C(=O)NCCN(C)C)oc2c1.CS(=O)(=O)O`?
Answer: Activity (Mus musculus [1]): inactive; Activity (Mus musculus [2]): Active; Activity (Mus musculus [3]): 8.96%; Activity [4]: Non-Toxic; Activity (Osteoblast [5]): Active; Activity [6]: Non-Toxic; Activity [7]: Non-Toxic; Activity (Mus musculus [8]): 4.94%; Activity (Mus musculus [9]): inactive; Activity (Mus musculus [10]): Active; Activity (Osteoblast [11]): Active; Activity (Osteoblast [12]): Active; Activity (Mus musculus [13]): 4.71%; fold change (FC) (Mus musculus [14]): 2; Activity (Osteoblast [15]): Active; Activity (Mus musculus [16]): Active; Activity (Osteoblast [17]): Active; Activity (Mus musculus [18]): Active; Activity (Osteoblast [19]): Active; Activity (Mus musculus [20]): Active; Activity [21]: Non-Toxic; Activity (Osteocyte): Active; Activity (Mus musculus [22]): 6.51%; Activity [23]: Non-Toxic; Activity [24]: Non-Toxic; Activity (Mus musculus [25]): 1.42%; Activity (Osteoblast [26]): Active; Activity (Mus musculus [27]): Active; Activity [28]: Non-Toxic; Activity [29]: Non-Toxic; Activity (Mus musculus [30]): Active; Activity [31]: Non-Toxic; Activity [32]: Non-Toxic; Activity (Mus musculus [33]): 34.01%; Activity (Mus musculus [34]): 12.12%; Activity [35]: Non-Toxic; Activity (Osteoblast [36]): Active
